# Assay results: PubChem BioAssay (NCI)
#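 Five compound concentrations were applied to cells in 96-well plates for 48 hours; endpoints were derived by simple linear interpolation of the resulting dose-response curve. TGI: concentration producing complete growth inhibition.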
# Tests used:
# Experiment in all cases: NCI tumour cell line growth inhibition, 48 h
# HOP-62 NSCLC = test system: HOP-62 NSCLC
# SF-539 CNS = test system: SF-539 CNS
# OVCAR-5 ovarian = test system: OVCAR-5 ovarian
# SW-620 colon = test system: SW-620 colon
# HL-60(TB) leukemia = test system: HL-60(TB) leukemia
# KM12 colon = test system: KM12 colon
# MALME-3M melanoma = test system: MALME-3M melanoma
# CCRF-CEM leukemia = test system: CCRF-CEM leukemia
# UACC-62 melanoma = test system: UACC-62 melanoma
# NCI-H23 lung = test system: NCI-H23 lung
# MCF7 breast = test system: MCF7 breast
# SF-268 CNS = test system: SF-268 CNS
# EKVX NSCLC = test system: EKVX NSCLC
# OVCAR-4 ovarian = test system: OVCAR-4 ovarian
# SNB-75 CNS = test system: SNB-75 CNS
# SN12C renal = test system: SN12C renal
# COLO 205 colon = test system: COLO 205 colon
# SN12K1 renal = test system: SN12K1 renal
# SNB-78 CNS = test system: SNB-78 CNS
# RXF 393 renal = test system: RXF 393 renal
# P388 leukemia = test system: P388 leukemia
# SK-MEL-2 melanoma = test system: SK-MEL-2 melanoma
# LOX IMVI melanoma = test system: LOX IMVI melanoma
# NCI-H460 lung = test system: NCI-H460 lung
# M19-MEL melanoma = test system: M19-MEL melanoma
# NCI-H226 lung = test system: NCI-H226 lung
# HOP-18 NSCLC = test system: HOP-18 NSCLC
# DLD-1 colon = test system: DLD-1 colon
# U251 CNS = test system: U251 CNS
# NCI/ADR-RES ovarian = test system: NCI/ADR-RES ovarian
# HCT-15 colon = test system: HCT-15 colon
# HCT-116 colon = test system: HCT-116 colon
# HCC-2998 colon = test system: HCC-2998 colon
# SK-OV-3 ovarian = test system: SK-OV-3 ovarian
# MOLT-4 leukemia = test system: MOLT-4 leukemia
# HT29 colon = test system: HT29 colon
# IGROV1 ovarian = test system: IGROV1 ovarian
# OVCAR-3 ovarian = test system: OVCAR-3 ovarian
# RPMI-8226 leukemia = test system: RPMI-8226 leukemia
# A549 NSCLC = test system: A549 NSCLC
# DMS 273 small cell lung = test system: DMS 273 small cell lung
# K-562 leukemia = test system: K-562 leukemia
# UO-31 renal = test system: UO-31 renal
# SK-MEL-5 melanoma = test system: SK-MEL-5 melanoma
# KM20L2 colon = test system: KM20L2 colon
# XF 498 CNS = test system: XF 498 CNS
# OVCAR-8 ovarian = test system: OVCAR-8 ovarian
# A498 renal = test system: A498 renal
# HOP-92 NSCLC = test system: HOP-92 NSCLC
# SF-295 CNS = test system: SF-295 CNS
# SK-MEL-28 melanoma = test system: SK-MEL-28 melanoma
# P388/ADR leukemia = test system: P388/ADR leukemia
# DMS 114 small cell lung = test system: DMS 114 small cell lung
# UACC-257 melanoma = test system: UACC-257 melanoma
# SNB-19 CNS = test system: SNB-19 CNS
structure (smiles),measurement,setting,value
CN(C)CCNC(=O)c1cccc2c1Nc1ccccc1S2,TGI,HOP-62 NSCLC,33.4 µM
same,TGI,SF-539 CNS,28.8 µM
same,TGI,OVCAR-5 ovarian,26.3 µM
same,TGI,SW-620 colon,30.8 µM
same,TGI,HL-60(TB) leukemia,19.2 µM
same,TGI,KM12 colon,26.4 µM
same,TGI,MALME-3M melanoma,29.2 µM
same,TGI,CCRF-CEM leukemia,28.1 µM
same,TGI,UACC-62 melanoma,28.4 µM
same,TGI,NCI-H23 lung,28.5 µM
same,TGI,MCF7 breast,27 µM
same,TGI,SF-268 CNS,31.7 µM
same,TGI,EKVX NSCLC,18.7 µM
same,TGI,OVCAR-4 ovarian,26.4 µM
same,TGI,SNB-75 CNS,21.3 µM
same,TGI,SN12C renal,26.1 µM
same,TGI,COLO 205 colon,25.8 µM
same,TGI,SN12K1 renal,20.7 µM
same,TGI,SNB-78 CNS,27.7 µM
same,TGI,RXF 393 renal,23.6 µM
same,TGI,P388 leukemia,6.23 µM
same,TGI,SK-MEL-2 melanoma,30.3 µM
same,TGI,LOX IMVI melanoma,26.2 µM
same,TGI,NCI-H460 lung,25.7 µM
same,TGI,M19-MEL melanoma,29.6 µM
same,TGI,NCI-H226 lung,16.8 µM
same,TGI,HOP-18 NSCLC,24.4 µM
same,TGI,DLD-1 colon,29.7 µM
same,TGI,U251 CNS,26.9 µM
same,TGI,NCI/ADR-RES ovarian,32.6 µM
same,TGI,HCT-15 colon,31.4 µM
same,TGI,HCT-116 colon,25 µM
same,TGI,HCC-2998 colon,27.2 µM
same,TGI,SK-OV-3 ovarian,30.5 µM
same,TGI,MOLT-4 leukemia,29.5 µM
same,TGI,HT29 colon,25 µM
same,TGI,IGROV1 ovarian,24.1 µM
same,TGI,OVCAR-3 ovarian,28 µM
same,TGI,RPMI-8226 leukemia,29.9 µM
same,TGI,A549 NSCLC,28.8 µM
same,TGI,DMS 273 small cell lung,29.3 µM
same,TGI,K-562 leukemia,36.2 µM
same,TGI,UO-31 renal,21.8 µM
same,TGI,SK-MEL-5 melanoma,26.3 µM
same,TGI,KM20L2 colon,29.9 µM
same,TGI,XF 498 CNS,25.3 µM
same,TGI,OVCAR-8 ovarian,30.2 µM
same,TGI,A498 renal,24.5 µM
same,TGI,HOP-92 NSCLC,8.96 µM
same,TGI,SF-295 CNS,27.7 µM
same,TGI,SK-MEL-28 melanoma,27.7 µM
same,TGI,P388/ADR leukemia,9.51 µM
same,TGI,DMS 114 small cell lung,20 µM
same,TGI,UACC-257 melanoma,27 µM
same,TGI,SNB-19 CNS,24 µM
